Measured values from US10287271B2, “Indole compounds having antiprotozoal activity and its use as well as methods for producing the same” (TECHNISCHE UNIVERSITAET BRAUNSCHWEIG, priority 2015, dated 2019).

Tested on: NF54-luc P. falciparum
Test: luciferase-based viability assay, erythrocytic stages of transgenic NF54-luc P. falciparum
Format: cell-based, Plasmodium falciparum
Details: for inhibition at 3 µM / inhibition at 30 µM / EC50: Plasmodium falciparum; for inhibition at 3 µM / inhibition at 30 µM: NF54, 48 hours; for inhibition at 3 µM: 3 μM test compound; for inhibition at 30 µM: 30 μM test compound; for EC50: erythrocytic stages NF54-luc, 48 hours incubation, titration
Protocol: Erythrocytic stages of transgenic NF54-luc P. falciparum were used for the luciferase-based viability assay. First, the culture was dispensed in triplicate into white 96-well flat bottom plates (each well contains 250 ul) (NUNC, Denmark) with parasitemia of 0.5-1%. Then the cultures were incubated in the presence of a 30 μM concentration of the test compounds for 48 hours (37° C., 90% N2, 5% CO2, and 5% O2). Subsequently, 100 ul RPMI1640 media was removed from each well and a 100 μL volume of the Bright-Glo® substrate solution was added to each well. One of the cleavage products of the reaction is light, which was measured by a FLUOROSKAN FL luminometer (Thermo) machine; thereby detecting the amount of living parasites. In case the inhibition of the proliferation exceeded 50%, the experiments were repeated with 3 μM solutions. […] The EC50 value is the half maximal effective concentration (the concentration at which half maximal inhibition is observed). Untreated cultures were used as negative controls and to calculate the inhibition rate (0% inhibition of parasite growth). Blasticidin (Sigma-Aldrich, St. Louis, Mo.), a drug used for selection of transfected parasites, was included as a positive control on each plate and gave >90% inhibition of parasite growth at 2 μg/mL.

| SMILES | inhibition at 3 µM | inhibition at 30 µM | EC50 | inhibition of parasite growth (positive control at 2 μg/mL) |
| --- | --- | --- | --- | --- |
| O=c1c(-c2c[nH]c3ccccc23)c(-c2c[nH]c3ccc(I)cc23)c1=O [KuHL117, 3-(1H-indol-3-yl)-4-(5-iodo-1H-indol-3-yl)cyclobut-3-ene-1,2-dione] | 31.3 ± 2.7% | – | – | – |
| Cc1[nH]c2ccccc2c1-c1c(-c2c[nH]c3ccc(Br)cc23)c(=O)c1=O [KuHL027, 3-(5-Bromo-1H-indol-3-yl)-4-(2-methyl-1H-indol-3-yl)cyclobut-3-ene-1,2-dione] | 45.6 ± 1.8% | 99.3 ± 0.4% | 30.5 µM | – |
| O=c1c(-c2c[nH]c3ccccc23)c(-c2c[nH]c3ccc(Cl)cc23)c1=O [KuHL118, 3-(5-Chloro-1H-indol-3-yl)-4-(1H-indol-3-yl)cyclobut-3-ene-1,2-dione] | 44.7 ± 0.5% | – | – | – |
| Cc1[nH]c2ccccc2c1-c1c(-c2c(C)[nH]c3ccccc23)c(=O)c1=O [KuHL012, 3,4-Bis(2-methyl-1H-indol-3-yl)cyclobut-3-ene-1,2-dione] | 18.3 ± 6.3% | 77.8 ± 5.9% | – | – |
| Cc1[nH]c2ccccc2c1-c1c(-c2cn(C)c3ccccc23)c(=O)c1=O [KuHL050, 3-(1-Methyl-1H-indol-3-yl)-4-(2-methyl-1H-indol-3-yl)cyclobut-3-ene-1,2-dione] | 59.6 ± 0.2% | 99.3 ± 0.3% | 2.67 µM | – |
| O=c1c(-c2c[nH]c3ccc(Br)cc23)c(-c2c(-c3ccccc3)[nH]c3ccccc23)c1=O [KuHL071, 3-(5-Bromo-1H-indol-3-yl)-4-(2-phenyl-1H-indol-3-yl)cyclobut-3-ene-1,2-dione] | 16 ± 0.7% | – | – | – |
| CN(CC[C@H](N)CC(=O)N[C@H]1C=C[C@H](n2ccc(N)nc2=O)O[C@@H]1C(=O)O)C(=N)N [Blasticidin, reference compound] | – | – | – | > 90% |
| COc1ccc2[nH]cc(-c3c(-c4c(C)[nH]c5ccccc45)c(=O)c3=O)c2c1 [KuHL018, 3-(5-Methoxy-1H-indol-3-yl)-4-(2-methyl-1H-indol-3-yl)cyclobut-3-en-1,2-dione] | 34.2 ± 8% | 99.6 ± 0.2% | 10 µM | – |
| N#Cc1ccc2[nH]cc(-c3c(-c4c[nH]c5ccccc45)c(=O)c3=O)c2c1 [KuHL122, 3-[2-(1H-Indol-3-yl)-3,4-dioxocyclobut-1-ene-1-yl]-1H-indol-5-carbonitrile] | 26.8 ± 1.6% | – | – | – |
| COc1ccc2[nH]cc(-c3c(-c4c[nH]c5ccc(OC)cc45)c(=O)c3=O)c2c1 [KuHL048, 3,4-Bis(5-methoxy-1H-indol-3-yl)cyclobut-3-ene-1,2-dione] | 19.7 ± 3.6% | 79.3 ± 1.3% | – | – |
| Cc1[nH]c2ccccc2c1-c1c(-c2c(-c3ccccc3)[nH]c3ccccc23)c(=O)c1=O [KuHL026, 3-(2-Methyl-1H-indol-3-yl)-4-(2-phenyl-1H-indol-3-yl)cyclobut-3-ene-1,2-dione] | 41.1 ± 1.7% | 98.4 ± 0.5% | 9.26 µM | – |
| Cn1cc(-c2c(-c3c(-c4ccccc4)[nH]c4ccccc34)c(=O)c2=O)c2ccccc21 [KuHL072, 3-(1-Methyl-1H-indol-3-yl)-4-(2-phenyl-1H-indol-3-yl)cyclobut-3-ene-1,2-dione] | 67.7 ± 0.7% | – | 1.72 µM | – |
| Cc1[nH]c2ccccc2c1-c1c(-c2c[nH]c3ccccc23)c(=O)c1=O [KuHL025, 3-(1H-Indol-3-yl)-4-(2-methyl-1H-indol-3-yl)cyclobut-3-ene-1,2-dione] | 23.4 ± 5.4% | 98.8 ± 0.5% | > 30 µM | – |
| O=c1c(-c2c[nH]c3ccccc23)c(-c2c[nH]c3ccccc23)c1=O [KuHL043, 3,4-Bis(1H-indol-3-yl)cyclobut-3-ene-1,2-dione] | 17.9 ± 3.3% | 99.2 ± 0.2% | 8.33 µM | – |
| O=c1c(-c2c(-c3ccccc3)[nH]c3ccccc23)c(-c2c(-c3ccccc3)[nH]c3ccccc23)c1=O [KuHL009, 3,4-Bis(2-phenyl-1H-indol-3-yl)cyclobut-3-ene-1,2-dione] | 41.1 ± 0.6% | 98.9 ± 0.8% | 2.47 µM | – |
| COc1ccc2[nH]cc(-c3c(-c4c[nH]c5ccc(F)cc45)c(=O)c3=O)c2c1 [KuHL113, 3-(5-Fluoro-1H-indol-3-yl)-4-(5-methoxy-1H-indol-3-yl)cyclobut-3-ene-1,2-dione] | 19.3 ± 3.1% | – | – | – |
| COc1ccc2[nH]cc(-c3c(-c4c[nH]c5ccc(Cl)cc45)c(=O)c3=O)c2c1 [KuHL102, 3-(5-Chloro-1H-indol-3-yl)-4-(5-methoxy-1H-indol-3-yl)cyclobut-3-ene-1,2-dione] | 87 ± 0.5% | – | 1.52 µM | – |
| COc1ccc2[nH]cc(-c3c(-c4c[nH]c5ccc(C#N)cc45)c(=O)c3=O)c2c1 [KuHL103, 3-[2-(5-Methoxy-1H-indol-3-yl)-3,4-dioxocyclobut-1-ene-1-yl]-1H-indol-5-carbonitrile] | 26.8 ± 1.1% | – | – | – |
| Cc1[nH]c2ccccc2c1-c1c(-c2cn(C)c3ccc(Br)cc23)c(=O)c1=O [KuHL077, 3-(5-Bromo-1-methyl-1H-indol-3-yl)-4-(2-methyl-1H-indol-3-yl)cyclobut-3-ene-1,2-dione] | 12.7 ± 2.8% | – | – | – |
| COc1ccc2[nH]cc(-c3c(-c4c[nH]c5ccc(Br)cc45)c(=O)c3=O)c2c1 [KuHL047, 3-(5-Bromo-1H-indol-3-yl)-4-(5-methoxy-1H-indol-3-yl)cyclobut-3-ene-1,2-dione] | 100% | 98.8 ± 0.7% | 0.47 µM | – |
| COc1ccc2[nH]cc(-c3c(-c4c(-c5ccccc5)[nH]c5ccccc45)c(=O)c3=O)c2c1 [KuHL058, 3-(5-Methoxy-1H-indol-3-yl)-4-(2-phenyl-1H-indol-3-yl)cyclobut-3-ene-1,2-dione] | 22.4 ± 2.7% | – | – | – |
| Cn1cc(-c2c(-c3c[nH]c4ccccc34)c(=O)c2=O)c2ccccc21 [KuHL032, 3-(1H-Indol-3-yl)-4-(1-methyl-1H-indol-3-yl)cyclobut-3-ene-1,2-dione] | 52 ± 1.8% | 98.7 ± 1.1% | 2.97 µM | – |
| COc1ccc2[nH]cc(-c3c(-c4c[nH]c5ccc(I)cc45)c(=O)c3=O)c2c1 [KuHL101, 3-(5-Iodo-1H-indol-3-yl)-4-(5-methoxy-1H-indol-3-yl)cyclobut-3-ene-1,2-dione] | 99.1 ± 0.4% | – | 0.65 µM | – |
| COc1ccc2[nH]cc(-c3c(-c4cn(C)c5ccccc45)c(=O)c3=O)c2c1 [KuHL057, 3-(5-Methoxy-1H-indol-3-yl)-4-(1-methyl-1H-indol-3-yl)cyclobut-3-ene-1,2-dione] | – | 13.6 ± 3.9% | – | – |
| COc1ccc2[nH]cc(-c3c(-c4c[nH]c5ccccc45)c(=O)c3=O)c2c1 [KuHL049, 3-(1H-Indol-3-yl)-4-(5-methoxy-1H-indol-3-yl)cyclobut-3-ene-1,2-dione] | 18.3 ± 5% | – | – | – |
| COc1ccc2[nH]cc(-c3c(-c4c[nH]c5ccc(OCc6ccccc6)cc45)c(=O)c3=O)c2c1 [KuHL136, 3-[5-(Benzyloxy)-1H-indol-3-yl]-4-(5-methoxy-1H-indol-3-yl)cyclobut-3-ene-1,2-dione] | 21.7 ± 2.5% | – | – | – |
| O=c1c(-c2c[nH]c3ccccc23)c(-c2c[nH]c3ccc(Br)cc23)c1=O [KuHL037, 3-(5-Bromo-1H-indol-3-yl)-4-(1H-indol-3-yl)cyclobut-3-ene-1,2-dione] | 65.9 ± 1.8% | 99.5 ± 0.4% | 3.02 µM | – |
| O=c1c(-c2c[nH]c3ccccc23)c(-c2c(-c3ccccc3)[nH]c3ccccc23)c1=O [KuHL044, 3-(1H-Indol-3-yl)-4-(2-phenyl-1H-indol-3-yl)cyclobut-3-ene-1,2-dione] | 65 ± 2.8% | 99.7 ± 0.1% | 6.38 µM | – |
